In patent US11865157B2, “Compositions and methods of targeting cancer stem cells” (University of Houston System, priority 2016, dated 2024):
Numbered stars: 1 amine (or outer) side, 2 acyl side, 3 side chain; on linkers, the order of the positions; unused ones are H or OH. Square brackets hold non-standard residues; d marks the D form. Peptide text beside a SMILES is read from it. ξ: configuration not given here. Gly(N-piperonyl) = O=C(O)CNCc1ccc2c(c1)OCO2; X1 = CC(c1ccccc1)N(CC(=O)[*:2])[*:1]; Nlys = NCCCCNCC(=O)O; ξK = NCCCCC(N)C(=O)O; ξM = CSCCC(N)C(=O)O; Nme = COCCNCC(=O)O

Key:
[1] = system: lung cancer cell lines (HCC4017, H358, H366, H460, H1299, H2073, H1693, H1993, H1975); test: RT-qPCR of CSC markers and PLEC in PCS2-bead bound vs unbound fractions of lung cancer cell lines; format: cell-based
Method: Using the same basic approach, peptoid-bound and peptoid-unbound fractions were generated from the lung cancer cells lines HCC4017, H358, H366, H460 for the PCS2 compound, and the relative expression of CSC marker SOX2 was evaluated between each fraction.
To confirm the binding specificity of PCS2 to CSCs, CSCs isolated from H358 cells and normal mesenchymal stem cells (MSCs) were exposed to PCS2-carrying beads as described in Example 3, and then separated by magnet into peptoid-bound and peptoid-unbound fractions (FIG. 19A). […] To further evaluate PCS2 specificity towards CSCs, HCC4017, H460, H1299, H2073, H1693, H1993, and H1975 cells were exposed to PCS2-carrying beads, and then separated by magnet into peptoid-bound and peptoid-unbound fractions. RNA from both bound and unbound fractions was harvested and analyzed by RT-qPCR to determine the relative expression of several known CSC biomarkers in each fraction was assessed, including expression of ALDH1A3 (FIG. 19B), CD133 (FIG. 19C), CD44 (FIG. 19D), and SOX2 (FIG. 19E). CD44 and SOX2 expressions were high on PCS2-coated magnetic-bead bound fractions from the almost all cell lines having higher expression of CSC biomarkers compared to the unsorted or unbound fractions confirming that the capacity of PCS2 to bind to CSCs is not exclusive to H358 cells. The correlation to ALDH1A3 and CD133 were varied, which is typical due to the high heterogeneity of CSC biomarker expressions, and there are no 100% biomarker correlations exists.
(§1) Plectin expression was directed tested on PCS2-bound cells from H358, HCC4017, H460, H1299, H2073, H1693, H1993, H1975 cells by RT-QPCR (FIG. 22A). […] To determine if PCS2 and the plectin antibody compete for binding, the magnetic-bead binding assay was repeated in the presence of the plectin antibody. […] Since previous reports have shown cells to be sufficiently stable for further assays with plectin knock-down, plectin knockdown was conducted in H358, H1693, H1975 and H1993 cells using siRNA using the magnetic-bead binding assay described above. […] From these observations, it was concluded that plectin is the cell-surface marker that PCS2 is targeting.

H358 cells [2] = test: Magnetic-bead pull-down assay; format: cell-based
Method: On-bead binding assay: 50 mg of peptoid-carrying tentagel beads or 1.3×10^6 of peptoid-carrying magnetic beads were equilibrated in 2 mL RPMI containing 5% FBS and 3% BSA (Sigma) for 1 hour by shaking. The beads can then be equilibrated with 5×10^6 of each cancer cell type listed above in 2 mL RPMI containing 5% FBS and 1% BSA at room temperature for 15-60 minutes for binding. The cell-bound beads are then pulled down with a magnet and washed with RPMI to cleanly harvest bound cells. Unbound cells were collected separately for further confirmations.
To confirm the binding specificity of PCS2 to CSCs, CSCs isolated from H358 cells and normal mesenchymal stem cells (MSCs) were exposed to PCS2-carrying beads as described in Example 3, and then separated by magnet into peptoid-bound and peptoid-unbound fractions (FIG. 19A). […] RNA from both bound and unbound fractions was harvested and analyzed by RT-qPCR to determine the relative expression of several known CSC biomarkers in each fraction was assessed, including expression of ALDH1A3 (FIG. 19B), CD133 (FIG. 19C), CD44 (FIG. 19D), and SOX2 (FIG. 19E). […]
To further evaluate this plectin-CSC connection, it was confirmed that CSCs can be isolated through cell surface plectin via a PCS2-independent approach. […] Next the mRNA levels of two known CSC biomarkers was analyzed on these cell groups by RT-QPCR, along with plectin (PLEC). […]

plectin = molecular target: T1, plectin (Homo sapiens, UniProt Q15149); test: Magnetic-bead binding assay with plectin antibody competition or plectin siRNA knockdown
T1 construct: endogenous in cells; host or cells: H358, H1693, H1975, H1993 cells
T1 sequence (Q15149 whole entry): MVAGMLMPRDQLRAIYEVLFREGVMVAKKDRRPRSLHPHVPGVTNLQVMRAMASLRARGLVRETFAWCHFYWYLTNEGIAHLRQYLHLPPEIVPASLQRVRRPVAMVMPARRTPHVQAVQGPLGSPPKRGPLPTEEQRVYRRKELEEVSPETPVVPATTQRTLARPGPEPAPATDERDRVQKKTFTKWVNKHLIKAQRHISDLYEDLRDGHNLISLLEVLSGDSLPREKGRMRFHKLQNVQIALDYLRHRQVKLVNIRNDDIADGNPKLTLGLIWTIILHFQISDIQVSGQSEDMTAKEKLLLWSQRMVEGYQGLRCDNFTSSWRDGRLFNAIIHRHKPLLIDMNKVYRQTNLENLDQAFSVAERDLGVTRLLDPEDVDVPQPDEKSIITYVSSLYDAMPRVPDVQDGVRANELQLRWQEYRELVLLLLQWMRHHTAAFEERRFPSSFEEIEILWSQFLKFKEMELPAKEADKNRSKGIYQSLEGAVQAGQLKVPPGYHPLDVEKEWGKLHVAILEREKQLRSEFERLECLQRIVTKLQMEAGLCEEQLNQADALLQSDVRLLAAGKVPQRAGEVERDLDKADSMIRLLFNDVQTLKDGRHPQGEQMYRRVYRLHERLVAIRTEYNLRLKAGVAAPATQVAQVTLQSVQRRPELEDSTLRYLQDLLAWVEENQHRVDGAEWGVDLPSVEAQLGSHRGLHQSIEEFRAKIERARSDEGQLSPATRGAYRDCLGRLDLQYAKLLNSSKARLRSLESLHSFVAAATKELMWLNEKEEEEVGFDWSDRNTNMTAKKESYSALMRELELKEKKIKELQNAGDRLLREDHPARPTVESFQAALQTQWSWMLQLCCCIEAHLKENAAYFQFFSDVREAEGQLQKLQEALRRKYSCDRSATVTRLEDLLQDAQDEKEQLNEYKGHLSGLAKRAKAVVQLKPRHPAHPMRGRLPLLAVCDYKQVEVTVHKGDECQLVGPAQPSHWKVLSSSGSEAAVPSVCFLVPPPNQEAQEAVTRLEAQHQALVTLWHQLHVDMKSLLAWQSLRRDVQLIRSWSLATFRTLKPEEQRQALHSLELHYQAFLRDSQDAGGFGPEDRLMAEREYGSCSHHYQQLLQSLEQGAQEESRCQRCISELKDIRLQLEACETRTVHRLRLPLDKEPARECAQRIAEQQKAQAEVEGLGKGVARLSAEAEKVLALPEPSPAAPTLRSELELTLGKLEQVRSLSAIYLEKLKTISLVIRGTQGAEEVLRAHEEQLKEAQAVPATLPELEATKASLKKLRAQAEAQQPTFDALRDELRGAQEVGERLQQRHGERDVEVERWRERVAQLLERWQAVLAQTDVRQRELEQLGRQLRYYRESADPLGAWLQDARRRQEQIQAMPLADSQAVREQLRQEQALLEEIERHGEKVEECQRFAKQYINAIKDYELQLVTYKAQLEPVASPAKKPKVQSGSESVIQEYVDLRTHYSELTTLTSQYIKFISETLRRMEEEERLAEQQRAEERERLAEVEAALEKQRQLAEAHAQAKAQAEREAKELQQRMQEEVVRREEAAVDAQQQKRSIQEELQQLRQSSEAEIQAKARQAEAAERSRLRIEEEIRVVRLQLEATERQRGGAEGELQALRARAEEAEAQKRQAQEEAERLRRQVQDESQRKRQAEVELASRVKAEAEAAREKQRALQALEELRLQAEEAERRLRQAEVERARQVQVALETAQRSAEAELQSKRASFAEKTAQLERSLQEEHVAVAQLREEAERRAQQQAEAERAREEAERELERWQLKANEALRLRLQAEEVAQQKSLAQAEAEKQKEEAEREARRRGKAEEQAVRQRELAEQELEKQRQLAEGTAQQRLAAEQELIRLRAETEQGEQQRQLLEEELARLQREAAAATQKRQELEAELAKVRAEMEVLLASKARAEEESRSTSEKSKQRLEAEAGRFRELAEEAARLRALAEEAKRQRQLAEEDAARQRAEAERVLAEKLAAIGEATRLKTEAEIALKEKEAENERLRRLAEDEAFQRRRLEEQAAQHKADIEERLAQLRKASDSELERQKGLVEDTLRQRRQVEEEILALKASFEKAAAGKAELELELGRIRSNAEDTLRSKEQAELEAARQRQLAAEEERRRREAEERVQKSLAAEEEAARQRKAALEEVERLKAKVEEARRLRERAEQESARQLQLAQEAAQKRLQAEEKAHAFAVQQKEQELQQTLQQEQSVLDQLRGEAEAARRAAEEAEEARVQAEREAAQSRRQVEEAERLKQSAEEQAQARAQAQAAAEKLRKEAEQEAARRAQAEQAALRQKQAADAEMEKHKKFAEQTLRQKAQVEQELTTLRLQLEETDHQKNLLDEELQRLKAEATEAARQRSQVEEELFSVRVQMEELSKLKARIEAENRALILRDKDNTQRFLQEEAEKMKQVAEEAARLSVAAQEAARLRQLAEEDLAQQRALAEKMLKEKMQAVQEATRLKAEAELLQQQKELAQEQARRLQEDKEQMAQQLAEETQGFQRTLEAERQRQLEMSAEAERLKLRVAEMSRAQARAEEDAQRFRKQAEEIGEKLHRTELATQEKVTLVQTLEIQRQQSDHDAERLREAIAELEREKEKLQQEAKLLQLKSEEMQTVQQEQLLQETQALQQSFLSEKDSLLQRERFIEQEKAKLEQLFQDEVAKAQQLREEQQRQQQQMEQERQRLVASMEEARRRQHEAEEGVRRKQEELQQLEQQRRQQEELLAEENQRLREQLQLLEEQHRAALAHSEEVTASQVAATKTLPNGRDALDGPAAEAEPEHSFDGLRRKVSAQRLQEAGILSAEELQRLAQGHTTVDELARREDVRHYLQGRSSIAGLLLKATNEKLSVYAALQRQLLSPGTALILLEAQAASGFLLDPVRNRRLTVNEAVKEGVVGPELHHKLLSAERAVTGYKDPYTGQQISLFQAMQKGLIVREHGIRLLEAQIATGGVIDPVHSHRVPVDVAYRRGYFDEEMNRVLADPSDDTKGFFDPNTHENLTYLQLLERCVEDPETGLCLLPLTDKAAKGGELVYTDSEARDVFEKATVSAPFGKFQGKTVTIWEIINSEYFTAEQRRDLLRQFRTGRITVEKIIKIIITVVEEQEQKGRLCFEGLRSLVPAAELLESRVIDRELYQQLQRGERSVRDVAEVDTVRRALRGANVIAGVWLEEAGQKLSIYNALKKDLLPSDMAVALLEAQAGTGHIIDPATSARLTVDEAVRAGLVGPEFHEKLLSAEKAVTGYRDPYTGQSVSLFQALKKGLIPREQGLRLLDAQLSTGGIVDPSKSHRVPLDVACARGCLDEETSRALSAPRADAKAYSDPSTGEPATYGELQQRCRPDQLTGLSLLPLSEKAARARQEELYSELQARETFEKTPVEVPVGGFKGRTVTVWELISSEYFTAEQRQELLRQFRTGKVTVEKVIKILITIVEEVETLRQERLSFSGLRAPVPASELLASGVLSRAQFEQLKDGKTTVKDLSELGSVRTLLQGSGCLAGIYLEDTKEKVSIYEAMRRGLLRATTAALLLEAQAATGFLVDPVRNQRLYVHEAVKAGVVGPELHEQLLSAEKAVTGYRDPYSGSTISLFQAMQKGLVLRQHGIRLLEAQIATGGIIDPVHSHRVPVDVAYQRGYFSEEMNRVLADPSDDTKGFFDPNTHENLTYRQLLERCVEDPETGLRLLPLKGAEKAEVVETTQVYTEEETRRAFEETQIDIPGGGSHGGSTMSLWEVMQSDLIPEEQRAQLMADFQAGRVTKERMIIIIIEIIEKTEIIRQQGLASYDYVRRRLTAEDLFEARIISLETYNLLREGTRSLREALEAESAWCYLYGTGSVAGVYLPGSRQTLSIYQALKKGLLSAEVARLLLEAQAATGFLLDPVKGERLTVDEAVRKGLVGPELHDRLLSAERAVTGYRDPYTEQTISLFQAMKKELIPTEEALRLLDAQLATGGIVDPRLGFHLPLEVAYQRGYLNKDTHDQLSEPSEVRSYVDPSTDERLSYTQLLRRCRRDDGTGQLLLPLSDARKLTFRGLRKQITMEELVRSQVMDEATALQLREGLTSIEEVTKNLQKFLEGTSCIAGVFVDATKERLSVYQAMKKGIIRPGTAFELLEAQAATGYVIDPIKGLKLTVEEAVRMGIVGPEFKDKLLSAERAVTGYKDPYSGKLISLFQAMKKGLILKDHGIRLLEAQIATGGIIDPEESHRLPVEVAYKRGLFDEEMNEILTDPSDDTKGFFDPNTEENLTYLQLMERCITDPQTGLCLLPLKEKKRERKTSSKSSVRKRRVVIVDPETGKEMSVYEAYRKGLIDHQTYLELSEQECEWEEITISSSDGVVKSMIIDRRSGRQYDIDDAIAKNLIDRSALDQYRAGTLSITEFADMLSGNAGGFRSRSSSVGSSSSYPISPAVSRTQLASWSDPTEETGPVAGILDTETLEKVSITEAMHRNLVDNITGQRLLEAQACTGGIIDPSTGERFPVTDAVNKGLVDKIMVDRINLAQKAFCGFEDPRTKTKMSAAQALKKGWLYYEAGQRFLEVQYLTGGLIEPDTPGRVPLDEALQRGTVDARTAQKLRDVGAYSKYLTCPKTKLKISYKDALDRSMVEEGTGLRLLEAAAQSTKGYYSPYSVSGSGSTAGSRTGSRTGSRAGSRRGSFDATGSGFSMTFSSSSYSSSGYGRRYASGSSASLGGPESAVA
Method: Unsorted H358 cells were plated on a 6-well plate and grown to 80% confluence. For each well, 9 μL of Lipofectamine RNAiMAX (Thermo Fisher) was mixed with 3 μL of 10 μM siRNA, either silencer select s10644 plectin or silencer select negative control 1 (Thermo Fisher), in serum-free RPMI and incubated for 5 minutes. The mixture was then added to the well and incubated for 1 to 4 days before testing. Magnetic binding assays were performed on harvested cells as described above for binding evaluation.
as §1

H358 cells [3] = test: Clonogenicity assay under treatment; format: cell-based; details: 500 cells/well, 30 and 100 μM, 2 weeks
Method: To further validate that PCS2D1 inhibiting CSCs, the effects of PCS2D1 against a stem-cell-associated phenotype were studied with regards to the capacity to form colonies from a single cell by using the clonogenicity assay. About 300 cells were plated onto 35 mm cell culture plates with either 0, 1, 10, 30, or 100 μM of PCS2D1, and allowed to grow for 2 weeks. After staining with crystal violet, both the number of colonies and the overall morphology of the colonies were evaluated.
The clonogenicity assay was repeated with H358 cells, 500 cells/well, using 0, 10, 30 and 100 μM PCS2 treatment over 2 weeks. […] To confirm that this was due to the specific targeting on CSCs, the clonogenicity assay was performed again over 8 days, with the treatment performed from day 7 to 8 instead, to allow the colonies to establish. This was done alongside control cells plated on chamber slides and then grown under the same conditions.

[4] = HCC4017, H460, H1299, H2073, H1693, H1993, H1975, almost all cell lines

bound cells after plectin siRNA knockdown vs control siRNA (plectin; H358, H1693, H1975 and H1993 cells): dramatic decrease | cells bound to PCS2-magnetic-beads in the presence of plectin antibody (plectin; all cell lines tested): fewer cells bound
Structure (SMILES): COCCNCC(=O)N(CCCCN)CC(=O)N(CC(=O)N(CC(=O)N(CCCCN)CC(=O)NC(CCCCN)C(=O)N[C@H](CCCCN)C(=O)NC(CCSC)C(N)=O)C(C)c1ccccc1)Cc1ccc2c(c1)OCO2 (stereo partly drawn) [PCS2] (H-[Nme][Nlys][Gly(N-piperonyl)][X1][Nlys][ξK][dK][ξM]-NH2)
Plectin expression in PCS2-bound cells vs unbound cells ([1]; H358, HCC4017, H460, H1299, H2073, H1693, H1993, H1975, RT-QPCR): significantly higher | relative expression of SOX2 in PCS2-bead fractions ([1]; HCC4017, H358, H366, H460, vs unsorted or unbound fractions): increased expression of SOX2 | CD44 expression in PCS2-coated magnetic-bead bound fractions [1, 4]: high | SOX2 expression in PCS2-coated magnetic-bead bound fractions [1, 4]: high | binding of PCS2 beads to CSCs from H358 vs normal MSCs (H358 cells [2]; bound vs unbound fractions): bound significantly higher on CSCs from H358 than normal MSCs | cells isolated (pull-down) from H358 (H358 cells [2]; coated magnetic beads): 28-38% | colonies formed (H358 cells [3]): Significantly fewer colonies formed
